ChEMBL document CHEMBL3259580, “New compounds from acid hydrolyzed products of the fruits of Momordica charantia L. and their inhibitory activity against protein tyrosine phosphatas 1B” (Eur J Med Chem, 2014)

Experiments:
[1] = molecular target: T1, Tyrosine-protein phosphatase non-receptor type 1 (Homo sapiens) (UniProt P18031); experiment: Inhibition of PTP1B (unknown origin) using para-nitro phenyl phosphate as substrate at 30 uM after 30 mins
T1 sequence (whole entry): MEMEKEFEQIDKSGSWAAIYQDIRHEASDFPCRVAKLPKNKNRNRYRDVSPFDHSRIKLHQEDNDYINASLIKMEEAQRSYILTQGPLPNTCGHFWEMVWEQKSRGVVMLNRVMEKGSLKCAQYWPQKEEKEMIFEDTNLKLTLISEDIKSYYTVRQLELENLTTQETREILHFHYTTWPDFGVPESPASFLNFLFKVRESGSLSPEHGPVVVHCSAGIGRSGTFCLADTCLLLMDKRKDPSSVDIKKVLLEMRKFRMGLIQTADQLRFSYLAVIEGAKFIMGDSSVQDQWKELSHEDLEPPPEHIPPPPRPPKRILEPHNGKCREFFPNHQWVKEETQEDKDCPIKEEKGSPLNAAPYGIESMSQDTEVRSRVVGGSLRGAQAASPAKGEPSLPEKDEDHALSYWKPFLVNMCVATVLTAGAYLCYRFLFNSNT

[2] = molecular target: T1, Tyrosine-protein phosphatase non-receptor type 1 (Homo sapiens); experiment: Inhibition of PTP1B (unknown origin) using para-nitro phenyl phosphate as substrate at 10 uM after 30 mins
[3] = molecular target: Tyrosine-protein phosphatase non-receptor type 1 (Homo sapiens) (UniProt P18031); experiment: Inhibition of PTP1B (unknown origin) using para-nitro phenyl phosphate as substrate at 20 uM after 30 mins

Compound	inhibition [1] [%]	inhibition [2] [%]	inhibition [3] [%]
CO[C@@H]1O[C@]23C=C[C@@H]4[C@@]1(CC[C@]1(C)[C@@H]([C@H](C)C[C@H](C=C(C)C)OC)CC[C@@]41C)[C@@H]2CC[C@H](O)C3(C)C	40	32	
CO[C@H]1O[C@@]23C=C[C@@H]4[C@]1(CC[C@@]1(C)[C@@H]([C@@H](C)C[C@H](C=C(C)C)OC)CC[C@]41C)[C@@H]2CC[C@H](O)C3(C)C	77	57	
CO[C@@H]1O[C@]23C=C[C@@H]4[C@@]1(CC[C@]1(C)[C@@H]([C@H](C)C/C=C/C(C)(C)OC)CC[C@@]41C)[C@@H]2CC[C@H](O)C3(C)C	37	22	
CO[C@H]1O[C@]23C=C[C@@H]4[C@@]1(CC[C@]1(C)[C@@H]([C@H](C)C[C@H](C=C(C)C)OC)CC[C@@]41C)[C@@H]2CC[C@H](O)C3(C)C	62	32	
C[C@H](C/C=C/C(C)(C)O)[C@H]1CC[C@@]2(C)[C@@H]3[C@@H](O)C=C4[C@@H](CC[C@H](O)C4(C)C)[C@]3(C=O)CC[C@]12C		-5	
SODIUM ORTHOVANAD			44
CO[C@@H]1O[C@]23C=C[C@@H]4[C@@]1(CC[C@]1(C)[C@@H]([C@H](C)C/C=C/C(C)(C)O)CC[C@@]41C)[C@@H]2CC[C@H](O)C3(C)C		-7	
C=C(C)/C=C/C[C@@H](C)[C@H]1CC[C@@]2(C)[C@@H]3C=C[C@@]45O[C@@H](O)[C@]3(CC[C@]12C)[C@@H]4CC[C@H](O)C5(C)C	68	44	
C[C@H](C/C=C/C(C)(C)O)[C@H]1CC[C@@]2(C)[C@@H]3C=C[C@@]45OC[C@]3(CC[C@]12C)[C@@H]4CC[C@H](O)C5(C)C	52	30	
C=C(C)/C=C/C[C@@H](C)[C@H]1CC[C@@]2(C)[C@@H]3C=C[C@@]45O[C@@H](OC)[C@]3(CC[C@]12C)[C@@H]4CC[C@H](O)C5(C)C	60	41	
CO[C@@H]1O[C@@]23C=C[C@@H]4[C@]1(CC[C@@]1(C)[C@@H]([C@@H](C)C[C@H](C=C(C)C)OC)CC[C@]41C)[C@@H]2CC[C@H](O)C3(C)C	62	44	
